PMC5030160 (Nature chemical biology, 2016)

Target: Pdr5 (Saccharomyces cerevisiae, UniProt P33302)
Test: fluorescence transport assay in isolated plasma membranes
Type: biochemical
Conditions: 150 nM R6G, 10 mM ATP, 5 mM MgCl2, Hepes pH 7.0, 30 °C

Pdr5, sequence (P33302 whole entry): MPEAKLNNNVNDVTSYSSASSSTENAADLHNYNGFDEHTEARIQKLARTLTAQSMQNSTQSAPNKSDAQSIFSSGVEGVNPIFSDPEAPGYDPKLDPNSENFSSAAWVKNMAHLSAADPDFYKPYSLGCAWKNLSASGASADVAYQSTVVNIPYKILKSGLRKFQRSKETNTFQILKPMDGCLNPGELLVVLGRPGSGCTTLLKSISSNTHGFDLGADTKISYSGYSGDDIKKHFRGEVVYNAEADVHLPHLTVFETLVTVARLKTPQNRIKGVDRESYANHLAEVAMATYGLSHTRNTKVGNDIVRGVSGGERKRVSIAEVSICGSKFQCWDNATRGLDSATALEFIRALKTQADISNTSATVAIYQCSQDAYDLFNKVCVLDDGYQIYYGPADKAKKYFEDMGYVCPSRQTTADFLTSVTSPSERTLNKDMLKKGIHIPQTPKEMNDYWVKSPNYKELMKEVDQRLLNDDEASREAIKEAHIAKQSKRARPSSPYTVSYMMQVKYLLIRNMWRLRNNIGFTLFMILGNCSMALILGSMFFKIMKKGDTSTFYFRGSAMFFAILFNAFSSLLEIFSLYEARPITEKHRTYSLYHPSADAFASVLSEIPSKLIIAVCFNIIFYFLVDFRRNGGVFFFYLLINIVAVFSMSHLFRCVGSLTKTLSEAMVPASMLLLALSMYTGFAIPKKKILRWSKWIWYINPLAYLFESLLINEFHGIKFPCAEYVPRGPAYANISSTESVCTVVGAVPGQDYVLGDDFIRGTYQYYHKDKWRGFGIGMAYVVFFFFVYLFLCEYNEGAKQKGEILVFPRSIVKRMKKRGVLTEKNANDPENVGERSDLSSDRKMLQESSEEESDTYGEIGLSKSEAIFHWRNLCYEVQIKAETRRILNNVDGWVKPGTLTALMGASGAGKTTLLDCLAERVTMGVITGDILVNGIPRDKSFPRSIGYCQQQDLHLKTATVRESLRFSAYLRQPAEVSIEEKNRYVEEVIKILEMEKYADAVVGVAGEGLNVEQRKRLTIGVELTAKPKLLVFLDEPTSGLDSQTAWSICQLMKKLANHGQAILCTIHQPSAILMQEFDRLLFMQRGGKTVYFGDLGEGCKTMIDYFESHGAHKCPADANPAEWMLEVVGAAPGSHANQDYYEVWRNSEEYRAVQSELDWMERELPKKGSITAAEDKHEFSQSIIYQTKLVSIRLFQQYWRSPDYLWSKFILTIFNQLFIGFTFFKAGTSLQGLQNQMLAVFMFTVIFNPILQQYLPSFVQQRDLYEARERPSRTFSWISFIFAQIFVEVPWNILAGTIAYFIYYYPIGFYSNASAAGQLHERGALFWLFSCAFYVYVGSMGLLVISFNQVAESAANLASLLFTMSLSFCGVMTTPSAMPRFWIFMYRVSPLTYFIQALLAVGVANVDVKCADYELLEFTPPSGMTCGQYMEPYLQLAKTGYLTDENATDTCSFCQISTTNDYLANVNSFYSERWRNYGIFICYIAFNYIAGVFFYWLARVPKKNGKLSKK

Question: Which “fluorescence transport assay in isolated plasma membranes” value does the source give for `CCN=c1cc2oc3cc(NCC)c(C)cc3c(-c3ccccc3C(=O)OCC)c-2cc1C` [rhodamine-6G] here?
Answer: Its value is “Active transport of rhodamine-6G (R6G) was determined according to a standard protocol”.
